The values below come from PMC6943434, “Novel Homo-Bivalent and Polyvalent Compounds Based on Ligustrazine and Heterocyclic Ring as Anticancer Agents” (Molecules, 2019).

Assay [1] has as its system A549 (epithelial cancer cell line). Briefly: MTT cell viability assay, A549. Type of assay: cell-based. Conditions: Homo sapiens, 48 h, read-out: Antiproliferative Activity IC50 ± SEM, A549. The procedure:
(§1) The tested cells were obtained from Shanghai Institute of Biochemistry and Cell Biology of the Chinese Academy of Sciences (Shanghai, China). HeLa and Hep G2 cell lines were cultured in Dulbecco’s modified Eagle’s medium (DMEM; gibco, Life Technologies, Carlsbad, CA, USA) supplemented with 10% fetal bovine serum (FBS; Biological Industries), 100 U/mL penicillin-streptomycin (PS; gibco, Life Technologies, Carlsbad, CA, USA). MCF-7 and A549 cell lines were maintained in RPMI-1640 media (gibco, Life Technologies, Carlsbad, CA, USA) supplemented with 10% FBS and 100 U/mL PS. FaDu cell lines were cultured in minimum essential medium (MEM; Gibco, Life Technologies, Carlsbad, CA, USA) supplemented with 10% FBS and 100 U/mL PS. MCF 10A cell lines were maintained in Mammary MEGM kit (Lonza/Clonetics) supplemented with 100 ng/mL cholera toxin (Sigma, Shanghai, China). Cell lines were grown at 37 °C in a humidified atmosphere of 5% CO2.
(§2) The growth-inhibitory effects against HeLa, Hep G2, MCF-7, FaDu, and A549 cancer cells and normal cell lines MCF 10A were determined by MTT assay. […] Cells were seeded in 96 well plates at a density of 1 × 10^4 cells per well and incubated for 24 h at 37 °C in a humidified atmosphere of 5% CO2. The cells were then incubated with various concentrations of drugs for 48 h in a 5% CO2 incubator at 37 °C. After treatment with 1 mg/mL 3-(4,5-dimethylthiazol-2-yl)-2,5-diphenyltetrazolium bromide (MTT) solution for 4 h, the formazan crystals were dissolved in 100 µL DMSO in each well. Plates were read on a microplate reader (Thermo Varioskan Flash 3001) at 490 nm. The experiment was performed in triplicate. The inhibitory concentration at 50% (IC50) was calculated based on concentration-inhibition relationships via regression using SPSS software (Version 17.0).

For assay [2], the system named is Hep G2 (hepatocarcinoma cell line). Briefly: MTT cell viability assay, Hep G2. Conditions: Homo sapiens, HepG2, 48 h, read-out: Antiproliferative Activity IC50 ± SEM, Hep G2. Type of assay: cell-based. The procedure: as §1, §2
On the technique in general: Formazan colour is commonly taken as a measure of viable cells.

Assay [3] has as its system FaDu (head and neck squamous carcinoma cell line). Briefly: MTT cell viability assay, FaDu. Type of assay: cell-based, human. Conditions: for IC50: 48 h, MTT, read-out: Antiproliferative Activity IC50 ± SEM, FaDu; for SI: selectivity index: SI = IC50 (MCF 10A)/IC50 (FaDu). Here is the method:
as §1, §2

Assay [4] relates to MCF-7 (breast cancer cell line). Kind of assay: MTT cell viability assay, MCF-7. The settings on record: Homo sapiens, MCF7, 48 h, read-out: Antiproliferative Activity IC50 ± SEM, MCF-7. Type of assay: cell-based. Here is the method:
as §1, §2

Assay [5] relates to HeLa (cervical cancer cell line). Briefly: MTT cell viability assay, HeLa. Type of assay: cell-based. Conditions: Homo sapiens, 48 h, read-out: Antiproliferative Activity IC50 ± SEM, HeLa. Here is the method:
as §1, §2

Assay [6] deals with MCF 10A (normal mammary epithelial cell). Briefly: MTT cell viability assay, MCF 10A. The settings on record: Homo sapiens, 48 h, normal cells, read-out: Antiproliferative Activity IC50 ± SEM, MCF 10A. Type of assay: cell-based.

The structures appear in SMILES notation. Read-outs that look alike come from different tables or passages of the source. Where only a bound is given, the exact number is not on record here.

The IC50 is the midpoint of a concentration-inhibition curve. As for `O=C(NCCCCCCCCCCNC(=O)c1ccccn1)c1ccccn1` [Compound 15e, N,N′-(Decane-1,10-Diyl)Dipicolinamide], the IC50 in assay [1] was determined as 23.08 ± 0.12 µM; in assay [2] it was 26.3 ± 5.36 µM; in assay [3] (Homo sapiens, FaDu), 8.85 ± 0.45 µM; in assay [4], 21.5 ± 1.47 µM; in assay [5] it was 37.7 ± 4.32 µM; in assay [6], 54.6 ± 5.92 µM. Moreover, the “SI: selectivity index” value in assay [3] was 6.18.
In the case of `Nc1ccccc1C(=O)NCCCCCCCCCCNC(=O)c1ccccc1N` [Compound 30e, N,N′-(Decane-1,10-Diyl)Bis(2-Aminobenzamide)], the IC50 in assay [1] was above 20 µM; in assay [2], above 20 µM; in assay [3] (Homo sapiens, FaDu), above 20 µM; in assay [4] it was above 20 µM; in assay [5], above 20 µM; in assay [6], above 20 µM.
`Cc1nc(C)c(C(=O)NCCCCCCCCCCCCNC(=O)c2nc(C)c(C)nc2C)nc1C` [Compound 8f, N,N′-(Dodecane-1,12-Diyl)Bis(3,5,6-Trimethylpyrazine-2-Carboxamide)]: the IC50 in assay [1] was 2.46 ± 0.05 µM; in assay [2] it was above 20 µM; in assay [3] (Homo sapiens, FaDu) it was 0.174 ± 0.01 µM; in assay [4] it was 0.158 ± 0.009 µM; in assay [5], 4.96 ± 1.62 µM; in assay [6] it was 0.051 ± 0.021 µM. For the same molecule, the “SI: selectivity index” value in assay [3] was 0.29.
Turning to `O=C(/C=C/c1ccc(Cl)cc1)NCCCCCCCCCCNC(=O)/C=C/c1ccc(Cl)cc1` [Compound 25e, (2E,2′E)-N,N′-(Decane-1,10-Diyl)Bis(3-(4-Chlorophenyl)Acrylamide)], the IC50 in assay [1], in assay [2], in assay [4], in assay [5] and in assay [6] was above 20 µM in each case. Moreover, in assay [3], the “SI: selectivity index” value was above 357.14.
Turning to `Cc1nc(C)c(CN(CCCCCCN(Cc2nc(C)c(C)nc2C)Cc2nc(C)c(C)nc2C)Cc2nc(C)c(C)nc2C)nc1C` [Compound 6d, N^1,N^1,N^6,N^6-Tetrakis((3,5,6-Trimethylpyrazin-2-yl)Methyl)Hexane-1,6-Diamine], the IC50 in assay [1] was above 100 µM; in assay [2], above 100 µM; in assay [3] (Homo sapiens, FaDu), above 100 µM; in assay [4] it was above 100 µM; in assay [5] it was above 100 µM; in assay [6] it was above 100 µM.
On to `O=C(NCCCCCCCCCCNC(=O)c1ccc2ncccc2c1)c1ccc2ncccc2c1` [Compound 18e, N,N′-(Decane-1,10-Diyl)Bis(Quinoline-6-Carboxamide)], for which the IC50 in assay [1] was above 20 µM; in assay [2], above 20 µM; in assay [3] (Homo sapiens, FaDu) it was below 1 µM; in assay [3], 0.697 ± 0.021 µM; in assay [4], above 20 µM; in assay [5] it was above 20 µM. In assay [6], the half-maximal inhibitory concentration (IC50) is above 20 µM. For the same molecule, in assay [3], the “SI: selectivity index” value is given as above 28.69.
With `COc1ccc(/C=C/C(=O)NCCCCCCCCCCNC(=O)/C=C/c2ccc(OC)c(O)c2)cc1O` [Compound 26e, (2E,2′E)-N,N′-(Decane-1,10-Diyl)Bis(3-(3-Hydroxy-4-Methoxyphenyl)Acrylamide)], the IC50 in assay [1] was above 20 µM; in assay [2] it was above 20 µM; in assay [3] (Homo sapiens, FaDu), above 20 µM; in assay [4], above 20 µM; in assay [5], above 20 µM; in assay [6], above 20 µM.
On to `O=C(/C=C/c1ccccc1)NCCCCCCCCNC(=O)/C=C/c1ccccc1` [Compound 9d, (2E,2′E)-N,N′-(Octane-1,8-Diyl)Bis(3-Phenylacrylamide)], for which the IC50 in assay [1] was above 20 µM; in assay [2], above 20 µM; in assay [3] (Homo sapiens, FaDu), 1.05 ± 0.091 µM; in assay [4] it was above 20 µM; in assay [5] it was above 20 µM; in assay [6] it was above 20 µM. Also, the “SI: selectivity index” value in assay [3] is above 18.98.
As to `O=C(/C=C/c1ccccc1)OCCOCCOCCOC(=O)/C=C/c1ccccc1` [Compound 9l, (Ethane-1,2-Diylbis(Oxy))Bis(Ethane-2,1-Diyl) (2E,2′E)-Bis(3-Phenylacrylate)], the IC50 is above 20 µM in assay [1]; above 20 µM in assay [2]; above 20 µM in assay [3] (Homo sapiens, FaDu); above 20 µM in assay [4]; above 20 µM in assay [5]; above 20 µM in assay [6].
In the case of `Cc1nc(C)c(CN(CCCCCCCCN(Cc2nc(C)c(C)nc2C)Cc2nc(C)c(C)nc2C)Cc2nc(C)c(C)nc2C)nc1C` [Compound 6e, N^1,N^1,N^8,N^8-Tetrakis((3,5,6-Trimethylpyrazin-2-yl)Methyl)Octane-1,8-Diamine], the IC50 in assay [1] was above 100 µM; in assay [2] it was 50.8 ± 1.35 µM; in assay [3] (Homo sapiens, FaDu) it was 49.5 ± 1.61 µM; in assay [4] it was 66.36 ± 0.05 µM; in assay [5], 62.7 ± 4.19 µM; in assay [6], 85.4 ± 2.28 µM. The “SI: selectivity index” value in assay [3] is on record as 1.73.
Turning to `Nc1ccc(C(=O)NCCCCCCCCCCNC(=O)c2ccc(N)cc2)cc1` [Compound 31e, N,N′-(Decane-1,10-Diyl)Bis(4-Aminobenzamide)], the IC50 in assay [1] is above 20 µM; in assay [2] it was above 20 µM; in assay [3] (Homo sapiens, FaDu), 5.59 ± 0.628 µM; in assay [4] it was above 20 µM; in assay [5] it was above 20 µM; in assay [6], above 20 µM. Moreover, the “SI: selectivity index” value in assay [3] is given as above 3.58.
For `O=C(/C=C/c1ccccc1)NCCCCCCCCCCNC(=O)/C=C/c1ccccc1` [Compound 9e, (2E,2′E)-N,N′-(Decane-1,10-Diyl)Bis(3-Phenylacrylamide)], the IC50 in assay [1] was 11.3 ± 0.81 µM; in assay [2] it was above 100 µM; in assay [4] it was above 100 µM; in assay [5], above 100 µM; in assay [6], above 100 µM. Also, the “SI: selectivity index” value in assay [3] was above 1851.85.
Consider `O=C(NCCCCCCCCCCNC(=O)c1ccncc1)c1ccncc1` [Compound 13e, N,N′-(Decane-1,10-Diyl)Diisonicotinamide], for which the half-maximal inhibitory concentration (IC50) in assay [1] is above 100 µM; in assay [2], above 100 µM; in assay [3] (Homo sapiens, FaDu), 48.3 ± 3.17 µM; in assay [4], above 100 µM; in assay [5] it was above 100 µM; in assay [6], above 100 µM. Also, the “SI: selectivity index” value in assay [3] is above 2.07.
For the molecule `Cc1nc(C)c(CN(CCN(Cc2nc(C)c(C)nc2C)Cc2nc(C)c(C)nc2C)Cc2nc(C)c(C)nc2C)nc1C` [Compound 6a, N^1,N^1,N^2,N^2-Tetrakis((3,5,6-Trimethylpyrazin-2-yl)Methyl)Ethane-1,2-Diamine], the IC50 in assay [1] is above 100 µM; in assay [2] it was above 100 µM; in assay [3] (Homo sapiens, FaDu), above 100 µM; in assay [4] it was above 100 µM; in assay [5] it was above 100 µM; in assay [6], 90.3 ± 3.41 µM.
Consider `O=C(NCCCCCCCCCCNC(=O)c1cc2ccccc2s1)c1cc2ccccc2s1` [Compound 22e, N,N′-(Decane-1,10-Diyl)Bis(Benzo[b]Thiophene-2-Carboxamide)], for which the half-inhibitory concentration (IC50) in assay [1], in assay [2], in assay [4], in assay [5] and in assay [6] was above 20 µM in each case. In assay [3], the “SI: selectivity index” value was above 1000.
For `Cc1nc(C)c(C(=O)NCCCCNC(=O)c2nc(C)c(C)nc2C)nc1C` [Compound 8b, N,N′-(Butane-1,4-Diyl)Bis(3,5,6-Trimethylpyrazine-2-Carboxamide)], the IC50 in assay [1] was above 100 µM; in assay [2], above 100 µM; in assay [3] (Homo sapiens, FaDu), above 100 µM; in assay [4], above 100 µM; in assay [5], above 100 µM; in assay [6], above 100 µM.
For `O=C(NCCCCCCCCCCNC(=O)c1ccc2ccccc2c1)c1ccc2ccccc2c1` [Compound 12e, N,N′-(Decane-1,10-Diyl)Bis(2-Naphthamide)], the concentration for half-maximal inhibition (IC50) in assay [1] is 8.77 ± 0.47 µM; in assay [2], above 100 µM; in assay [3] (Homo sapiens, FaDu), 1.33 ± 0.07 µM; in assay [4] it was above 100 µM; in assay [5], above 100 µM; in assay [6], above 100 µM. Besides, the “SI: selectivity index” value in assay [3] was above 75.19.
For `Cc1nc(C)c(C(=O)NCCCNC(=O)c2nc(C)c(C)nc2C)nc1C` [Compound 8a, N,N′-(Propane-1,3-Diyl)Bis(3,5,6-Trimethylpyrazine-2-Carboxamide)], the IC50 in assay [1] was above 100 µM; in assay [2], above 100 µM; in assay [3] (Homo sapiens, FaDu), above 100 µM; in assay [4] it was above 100 µM; in assay [5], above 100 µM; in assay [6], above 100 µM.
